This is an account of results in patent publication US7422883B2, “Map kinase integrin-binding domain” (Inter-K Pty Limited, priority 2000, dated 2008).

In assay [1] the target is T1, ERK2 (Mus musculus, UniProt P63085).
T1 construct: GST (glutathione-S-transferase); made in house
Kind of assay: ELISA of ERK2 binding to biotinylated integrin cytoplasmic domain peptides. On the procedure:
Peptide fragments corresponding to regions of the cytoplasmic tail domain of the β6 subunit were screened in an enzyme-linked immunosorbent assay (ELISA) for binding with ERK2. The 52 amino acid long β6 cytoplasmic tail is shown in FIG. 16 as are the amino acid sequences for the cytoplasmic domains of the β1 to β3 subunits. In particular, four synthetic peptides designated fragment 1 to fragment 4 were prepared and biotinylated at the N-terminal end of each, respectively (Auspep Pty Ltd, Melbourne Australia).
Overlapping biotinylated fragments 1 to 4 were coated onto streptavidin coated polystyrene plates (Pierce, Rockford Ill. USA, Cat No. 15125) and the ELISA performed substantially according to manufacturers instructions. Briefly, wells are washed with 3×200 μl of wash buffer (TBS, 0.1% BSA, 0.05% Tween 20 or SuperBlock™ blocking buffer in TBS, Pierce, Prod. No. 37535) prior to addition of biotinylated peptides (100 μl) and incubation for 1 hr at room temperature to allow for capture of the peptides on the plate. Following another washing step, peptides were overlayed with GST-ERK, ERK (or JNK-1) alone at a volume of 100 μl per well, and the plates incubated for a further 1 hr at room temperature before removal of any unbound ERK by further washing.
Binding of ERK to the peptides is detected using 100 μl anti-ERK1/2 mAb SC1647 (Santa Cruz) as the primary antibody at a dilution of 1:700 (isotype matched antibody IgG2b is used as a control). This is followed by another washing step and addition of 100 μl rabbit anti-mouse antibody (Biorad) conjugated to alkaline phosphatase at a concentration of 1:1000 for 30 minutes again at room temperature. A […] of detection reagent (alkaline phosphatase detection kit-Biorad) is then introduced into each well after a final washing step and allowed to react for 15-30 minutes at room temperature in the dark before absorbance is measured at 405 nm. All dilutions of peptides, MAP kinase and antibodies were performed using the wash buffer. GST-ERK is a fusion protein consisting of ERK coupled to glutathione-S-transferase and purified from host cells transfected with pGEX vector.
To further localise the binding domain on the cytoplasmic tail of the β6 subunit, progressively shorter peptides from the region of the β6 cytoplasmic tail corresponding to peptide fragment 2 were synthesised, biotinylated and the capacity to associate or otherwise bind to ERK2 assessed as described above. The binding of GST.ERK2 to a 15 mer test peptide (seq. 4) having the amino acid sequence RSKAKWQTGTNPLYR (SEQ ID NO: 7) and a 10 mer test peptide having the sequence RSKAKWQTGT (SEQ ID NO: 21) is shown in FIG. 20 compared to fragment 2 over a range of concentrations of the peptides. […] 4 peptide compared to fragment 2 was found. Binding of ERK2 to the seq. 3 peptide was substantially less than that observed for seq. 4.
Binding of ERK2 to the seq.4 peptide (RSKAKWQTGTNPLYR) (SEQ ID NO: 7) was compared with peptides corresponding to regions of the cytoplasmic domain of integrin subunits β1, β2, β3 and β5. The amino acid sequences for those peptides is shown below:
To evaluate this, cell lysates containing equal protein loads were prepared from SW480 wild-type cells and SW480 cells transfected with either vector alone (mock transfectants), wild type β6 or the β6 deletion mutant Δ746-764 (lacking the sequence EAERSKAKWQTGTNPLYRG (SEQ ID NO: 26), Cone et al, 1994). The lysates were immunoprecipitated with mAbs R6G9 (anti-β6), P1F6 (anti-β5) or murine IgG control antibody (mlgG). […] To determine whether β5 can bind ERK2 in vitro, a 15-mer peptide fragment derived from the β5 cytoplasmic domain corresponding to the ERK binding domain on β6 was tested for its ability to bind ERK2 in an ELISA.

Assay [2] concerns SW480 β6 transfectants. Kind of assay: WST-1 growth inhibition, SW480 β6-expressing cells. The assay is classed as cell-based, human. As to conditions: 30 μm, 24 hours, serum-free, FIG. 29. The protocol: (§1) HT29 and SW480 β6-expressing colon cancer cell lines were seeded into wells of 96-well microtitre plates (Nunclon) in Dulbecco's Modified Eagle's Medium (DMEM) supplemented with 10% foetal bovine serum, glutamine, Hepes, and antibiotics. […] The cell proliferation reagent WST-1 is designed to be used for the non-radioactive, spectrophotometric quantification of cell growth and viability in proliferation and chemosensitivity assays. […]
(§2) Specifically, at the termination of experiments, 30 μl of WST-1 was added to 270 μl culture medium volume in each microtitre well and the colour change quantitated in an ELISA plate reader by measuring absorbance of the formazan product at […] (using a reference wavelength of more than 600 nm). The mean absorbance readings from triplicate wells (±standard error of the means) after subtraction of background control wells (culture medium without cells) was determined.
[…] Percentage inhibition was assessed by the WST-1 colorimetric dehydrogenase assay described in Example 6. […]
Background: Tetrazolium dyes change colour on reduction, which living cells bring about.

Assay [3] deals with HT29 colon cancer cells. The experiment in a line: WST-1 growth inhibition study, HT29. The assay is classed as cell-based, human. The note with it: HT29, 10 μm, 24 hours, serum-free; FIG. 28. On the procedure: as §1, §2
The subject of assay [4] is SW480 cells. The experiment in a line: In vitro wound assay (cell migration). Format: cell-based, human. The note with it: SW480 lacking αvβ6, 1.25-10 μM, 48 hours, 1% foetal calf serum; FIG. 40. The protocol: The wound assay was performed by seeding 2×10^5 cells into 24 well (1.6 cm diameter) tissue culture plates in Dulbecco's modified Eagles medium (DMEM) supplemented by 10% foetal calf serum, HEPES, glutamine and antibiotics. The confluent cell monolayers were streaked with the tip of a plastic pipette in a cross-wire fashion, and loose non-adherent cells washed off gently with medium before replacing the culture medium with DMEM supplemented with 1% foetal calf serum. In addition, RSKAKWQTGTNPLYR (SEQ ID NO: 7) peptide ligated to penetratin (carrier peptide) by means of cysteine Cys (Npys) bonding was added to each well at a final concentration in the range of 1.25-10 μM. Cell migration across the wounded (streaked) area was photographed (Techpan, Kodachrome, ASA100) after a further 48 hours in culture. […] The conditions utilised in the assay were as follows: A: no peptide-penetratin complex added, B: 2.5 μM peptide-penetratin complex added, C: 5 μM peptide-penetratin complex added, D: 10 μM peptide-penetratin complex added.

No end group written: not given here.

T1 sequence (P63085 whole entry): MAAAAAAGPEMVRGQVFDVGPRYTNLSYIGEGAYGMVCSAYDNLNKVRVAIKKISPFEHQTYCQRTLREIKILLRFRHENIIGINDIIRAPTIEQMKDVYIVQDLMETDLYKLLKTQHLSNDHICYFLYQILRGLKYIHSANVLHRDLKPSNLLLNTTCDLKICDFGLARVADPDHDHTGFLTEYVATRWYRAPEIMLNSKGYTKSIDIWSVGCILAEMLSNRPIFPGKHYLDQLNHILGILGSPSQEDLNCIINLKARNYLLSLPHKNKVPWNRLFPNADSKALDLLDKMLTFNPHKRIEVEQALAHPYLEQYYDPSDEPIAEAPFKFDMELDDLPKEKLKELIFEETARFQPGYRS

As for “RSKAKWQTGTNPLYR (also: biotinylated, site not given here) [seq. 4, 15 mer fragment of the β6 cytoplasmic domain]”, the “binding of ERK2 to integrin subunit peptides” value in assay [1] (corrected for non-specific binding, FIG. 34) is “significant binding”. For the same sequence, the “binding of GST.ERK2 to peptide” value in assay [1] (over a range of concentrations of the peptides, compared to fragment 2, FIG. 20) is given as “no reduction in binding”. The “inhibition of cell proliferation (WST-1)” value in assay [2] and in assay [3] was “Only the carrier penetratin-peptide complex was effective in inhibiting cell proliferation in contrast to either peptide or penetratin alone” throughout. The “cell migration across wounded area (wound repair)” value in assay [4] is “not stimulated”.
